Assay results reported in patent US10167262B2, “Herbicidal substituted 3-arylpyrazoles” (FMC CORPORATION, priority 2014, dated 2019).

Experiments:
Experiment in all cases: Test E pre-/postemergence greenhouse test, plant response rating 0-100
Assay type in all cases: in vivo
[1] = test system: green foxtail (Setaria viridis); conditions: Preemergence, scale 0 to 100
[2] = test system: giant foxtail (Setaria faberii); conditions: Preemergence, scale 0 to 100
[3] = test system: large (Lg) crabgrass (Digitaria sanguinalis); conditions: Preemergence, scale 0 to 100
[4] = test system: yellow nutsedge (Cyperus esculentus); conditions: Preemergence, scale 0 to 100
[5] = test system: smartweed (ladysthumb smartweed, Polygonum persicaria); conditions: scale 0 to 100; for Smartweed plant response rating: Preemergence
[6] = test system: corn (Zea mays); conditions: scale 0 to 100; for Plant response rating, Corn: Postemergence; for Corn plant response rating: Preemergence
Outline: (§1)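 Rated visually against controls 14-21 days after treatment on a 0-100 scale (100 = complete control). Pre- and postemergence sprays used a non-phytotoxic solvent mixture with surfactant. Preemergence seeds were in silt loam; postemergence plants were in peat-based medium at the 1- to 4-leaf stage (2-18 cm).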

[7] = test system: ragweed (common ragweed, Ambrosia elatior); conditions: Preemergence, scale 0 to 100
Outline: as §1

[8] = test system: surinam grass (Brachiaria decumbens); conditions: Preemergence, scale 0 to 100
Outline: as §1

[9] = test system: soybean (Glycine max); conditions: scale 0 to 100; for Plant response rating, Soybean: Postemergence; for Soybean plant response rating: Preemergence
Outline: as §1

[10] = test system: field bindweed (Convolvulus arvensis); conditions: scale 0 to 100; for Plant response rating, Field Bindweed: Postemergence; for Field Bindweed plant response rating: Preemergence
Outline: as §1

[11] = test system: smartweed (ladysthumb smartweed, Polygonum persicaria); conditions: Postemergence, scale 0 to 100
[12] = test system: Italian ryegrass (Lolium multiflorum); conditions: scale 0 to 100; for Plant response rating, Ryegrass, Italian: Postemergence; for Ryegrass, Italian plant response rating: Preemergence
Outline: as §1

[13] = test system: goosegrass (Eleusine indica); conditions: Preemergence, scale 0 to 100
[14] = test system: johnsongrass (Sorghum halepense); conditions: Preemergence, scale 0 to 100
[15] = test system: morningglory (Ipomoea coccinea); conditions: Preemergence, scale 0 to 100

## O=C(c1ccccc1)c1cn(S(=O)(=O)CCl)nc1-c1cc(Cl)cc(Cl)c1 [Compound 1]
[1]; 31 g ai/ha
  Foxtail, Green plant response rating: 0
[1]; 62 g ai/ha
  Foxtail, Green plant response rating: 0
[1]; 125 g ai/ha
  Foxtail, Green plant response rating: 0
[1]; 250 g ai/ha
  Foxtail, Green plant response rating: 0
[1]; 500 g ai/ha
  Foxtail, Green plant response rating: 15
[2]; 31 g ai/ha
  Foxtail, Giant plant response rating: 0
[2]; 62 g ai/ha
  Foxtail, Giant plant response rating: 0
[2]; 125 g ai/ha
  Foxtail, Giant plant response rating: 0
[2]; 250 g ai/ha
  Foxtail, Giant plant response rating: 0
[2]; 500 g ai/ha
  Foxtail, Giant plant response rating: 0
[3]; 31 g ai/ha
  Crabgrass, Large plant response rating: 0
[3]; 62 g ai/ha
  Crabgrass, Large plant response rating: 0
[3]; 125 g ai/ha
  Crabgrass, Large plant response rating: 0
[3]; 250 g ai/ha
  Crabgrass, Large plant response rating: 0
[3]; 500 g ai/ha
  Crabgrass, Large plant response rating: 0
[4]; 31 g ai/ha
  Nutsedge, Yellow plant response rating: 0
[4]; 62 g ai/ha
  Nutsedge, Yellow plant response rating: 0
[4]; 125 g ai/ha
  Nutsedge, Yellow plant response rating: 0
[4]; 250 g ai/ha
  Nutsedge, Yellow plant response rating: 0
[5]; Postemergence, 500 g ai/ha
  Plant response rating, Smartweed: 85
[5]; 31 g ai/ha
  Smartweed plant response rating: 0
[5]; 125 g ai/ha
  Smartweed plant response rating: 98
[5]; 250 g ai/ha
  Smartweed plant response rating: 98
[5]; 500 g ai/ha
  Smartweed plant response rating: 98
[6]; 31 g ai/ha
  Plant response rating, Corn: 0
  Corn plant response rating: 0
[6]; 62 g ai/ha
  Plant response rating, Corn: 0
  Corn plant response rating: 0
[6]; 125 g ai/ha
  Plant response rating, Corn: 0
  Corn plant response rating: 0
[6]; 250 g ai/ha
  Plant response rating, Corn: 0
  Corn plant response rating: 0
[6]; 500 g ai/ha
  Plant response rating, Corn: 0
  Corn plant response rating: 0
[7]; 31 g ai/ha
  Ragweed plant response rating: 50
[7]; 250 g ai/ha
  Ragweed plant response rating: 75
[7]; 500 g ai/ha
  Ragweed plant response rating: 75
[8]; 31 g ai/ha
  Surinam Grass plant response rating: 0
[8]; 62 g ai/ha
  Surinam Grass plant response rating: 0
[8]; 125 g ai/ha
  Surinam Grass plant response rating: 0
[8]; 250 g ai/ha
  Surinam Grass plant response rating: 0
[8]; 500 g ai/ha
  Surinam Grass plant response rating: 0
[9]; 31 g ai/ha
  Plant response rating, Soybean: 0
  Soybean plant response rating: 0
[9]; 62 g ai/ha
  Plant response rating, Soybean: 0
  Soybean plant response rating: 0
[9]; 125 g ai/ha
  Plant response rating, Soybean: 0
  Soybean plant response rating: 0
[9]; 250 g ai/ha
  Plant response rating, Soybean: 0
  Soybean plant response rating: 0
[9]; 500 g ai/ha
  Plant response rating, Soybean: 0
  Soybean plant response rating: 0
[10]; 31 g ai/ha
  Plant response rating, Field Bindweed: 0
  Field Bindweed plant response rating: 0
[10]; 62 g ai/ha
  Plant response rating, Field Bindweed: 0
  Field Bindweed plant response rating: 0
[10]; 125 g ai/ha
  Plant response rating, Field Bindweed: 0
  Field Bindweed plant response rating: 0
[10]; 250 g ai/ha
  Plant response rating, Field Bindweed: 0
  Field Bindweed plant response rating: 0
[10]; 500 g ai/ha
  Plant response rating, Field Bindweed: 0
  Field Bindweed plant response rating: 0
[11]; 31 g ai/ha
  Plant response rating, Smartweed: 0
[11]; 62 g ai/ha
  Plant response rating, Smartweed: 35
[11]; 125 g ai/ha
  Plant response rating, Smartweed: 50
[11]; 250 g ai/ha
  Plant response rating, Smartweed: 75
[12]; 31 g ai/ha
  Plant response rating, Ryegrass, Italian: 0
  Ryegrass, Italian plant response rating: 0
[12]; 62 g ai/ha
  Plant response rating, Ryegrass, Italian: 0
  Ryegrass, Italian plant response rating: 0
[12]; 125 g ai/ha
  Plant response rating, Ryegrass, Italian: 0
  Ryegrass, Italian plant response rating: 0
[12]; 250 g ai/ha
  Plant response rating, Ryegrass, Italian: 0
  Ryegrass, Italian plant response rating: 0
[12]; 500 g ai/ha
  Plant response rating, Ryegrass, Italian: 0
  Ryegrass, Italian plant response rating: 0
[13]; 31 g ai/ha
  Goosegrass plant response rating: 0
[13]; 62 g ai/ha
  Goosegrass plant response rating: 0
[13]; 125 g ai/ha
  Goosegrass plant response rating: 0
[13]; 250 g ai/ha
  Goosegrass plant response rating: 0
[13]; 500 g ai/ha
  Goosegrass plant response rating: 0
[14]; 31 g ai/ha
  Johnsongrass plant response rating: 0
[14]; 62 g ai/ha
  Johnsongrass plant response rating: 0
[14]; 125 g ai/ha
  Johnsongrass plant response rating: 0
[14]; 250 g ai/ha
  Johnsongrass plant response rating: 20
[14]; 500 g ai/ha
  Johnsongrass plant response rating: 20
[15]; 31 g ai/ha
  Morningglory plant response rating: 0
[15]; 62 g ai/ha
  Morningglory plant response rating: 0
[15]; 125 g ai/ha
  Morningglory plant response rating: 0
[15]; 250 g ai/ha
  Morningglory plant response rating: 0
[15]; 500 g ai/ha
  Morningglory plant response rating: 0
